Assay type in all cases: in vivo
For series [1], the system named is microRNA-708. In words: Obesity level of HFD-fed obese mice treated with antisense nucleic acid of microRNA-708. Conditions: 2-month old obese mice fed with HFD for two months; subcutaneously injected at 10 D/g weekly for four weeks; FIG. 13. The text has this: (§1) A designed RNA sequence ([…] (SEQ ID NO: 2)), reverse complementary to microRNA-708, was subcutaneously injected at 10 D/g to 2-month old obese mice (fed with HFD for two months) weekly for four weeks.

The test system of series [2] is microRNA-708. Description: Insulin tolerance test (ITT) in obese mice treated with antisense nucleic acid of microRNA-708. Conditions: 2-month old obese mice fed with HFD for two months; subcutaneously injected at 10 D/g weekly for four weeks; FIG. 15. As to the method: (§2) As obesity is closely related to type II diabetes, the present inventors also examined the role of microRNA-708 in insulin sensitivity, where insulin tolerance test (ITT) and glucose tolerance test (GTT) were adopted. ITTs of the microRNA-708 knockout mice were assayed 0, 15, 30, 60, and 90 min after an intraperitoneal injection of insulin (diluted as 0.5 U/ml in saline and dosed at 0.5-1.2 U insulin per kg body mass, e.g., 0.5 U insulin per kg body mass, […]) following a 4 h fast. GTTs of the microRNA-708 knockout mice were assayed 0, 15, 30, 60, and 90 min after an intraperitoneal injection of glucose (diluted as 20% glucose solution in saline and dosed at 0.5-2 g glucose per kg body mass, e.g., 1 g glucose per kg body mass) following overnight fast.
as §1

Series [3] relates to microRNA-708. Description: Glucose tolerance test (GTT) in obese mice treated with antisense nucleic acid of microRNA-708. Particulars: obese mice treated with antisense nucleic acids; FIG. 14. On the procedure:
as §2, §1

On to CCCAGCUAGACUUGUAAGUCCUU [SEQ ID NO: 2], for which the obesity levels entry in series [1] is “declined distinctly”. Also, the “insulin tolerance symptoms (insulin resistance)” value in series [2] is recorded as “significantly alleviated”. Further, the glucose tolerance result in series [3] was “obvious relieved”.

Values taken from patent publication US20200370045A1, “METHOD OF TREATING TYPE II DIABETES AND OBESITY AND METHOD OF SCREENING A MEDICAMENT FOR THE SAME” (Tsinghua University, priority 2017, published 2020).
